From patent US20250320228A1, “PYRIDO[3,2-D]PYRIMIDINES AS HPK1 INHIBITORS” (Merck Patent GmbH, priority 2022, published 2025)
Where a name gives a salt, the structure may show the parent alone. Read-outs that look alike come from different tables or passages of the source.

Experiments:
[1] = target: full-length human HPK1 (MAP4K1) (Homo sapiens (Human), UniProt Q92918); assay: HPK1 kinase assay (biochemical, ADP-Glo); settings: read-out: HPK1 enzymatic IC50
Method in brief: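 GST-tagged full-length human HPK1 from Sf21 baculovirus cells (3.2 nM in enzyme mix; 50 mM HEPES pH 7.5, 10 mM MgCl2) was preincubated 15 min at RT with compound. Reaction was started with Start-Mix (10 μM ATP, 3.235 μM MBP) and run 120 min. ADP was read by ADP-Glo luminescence; IC50 came from 10-point % inhibition.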

HPK1 pSLP76 (Ser376) = assay: Cellular assay phospho-SLP-76 (Ser376); type: cell-based, human; settings: read-out: HPK1 pSLP76 IC50
Method in brief: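 Jurkat (human) and EL-4 (mouse) cells preincubated 60 min with compound, then stimulated with αCD3/αCD28 Dynabeads at 37 °C (Jurkat 15 min; EL-4 30 min). SLP76 Ser376 phosphorylation in lysate read by AlphaLISA SureFire (Jurkat) or HTRF (EL-4, 19 h); IC50 from 10-point dilutions.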

[2] = GST-HPK1 3.2 nM, 10 μM ATP, MBP substrate, ADP-Glo
[3] = SLP76 Ser376 phosphorylation after αCD3/αCD28 stimulation, Jurkat (human) or EL-4 (mouse) cells, table does not say which

Sequence of full-length human HPK1 (MAP4K1) (Q92918 whole entry): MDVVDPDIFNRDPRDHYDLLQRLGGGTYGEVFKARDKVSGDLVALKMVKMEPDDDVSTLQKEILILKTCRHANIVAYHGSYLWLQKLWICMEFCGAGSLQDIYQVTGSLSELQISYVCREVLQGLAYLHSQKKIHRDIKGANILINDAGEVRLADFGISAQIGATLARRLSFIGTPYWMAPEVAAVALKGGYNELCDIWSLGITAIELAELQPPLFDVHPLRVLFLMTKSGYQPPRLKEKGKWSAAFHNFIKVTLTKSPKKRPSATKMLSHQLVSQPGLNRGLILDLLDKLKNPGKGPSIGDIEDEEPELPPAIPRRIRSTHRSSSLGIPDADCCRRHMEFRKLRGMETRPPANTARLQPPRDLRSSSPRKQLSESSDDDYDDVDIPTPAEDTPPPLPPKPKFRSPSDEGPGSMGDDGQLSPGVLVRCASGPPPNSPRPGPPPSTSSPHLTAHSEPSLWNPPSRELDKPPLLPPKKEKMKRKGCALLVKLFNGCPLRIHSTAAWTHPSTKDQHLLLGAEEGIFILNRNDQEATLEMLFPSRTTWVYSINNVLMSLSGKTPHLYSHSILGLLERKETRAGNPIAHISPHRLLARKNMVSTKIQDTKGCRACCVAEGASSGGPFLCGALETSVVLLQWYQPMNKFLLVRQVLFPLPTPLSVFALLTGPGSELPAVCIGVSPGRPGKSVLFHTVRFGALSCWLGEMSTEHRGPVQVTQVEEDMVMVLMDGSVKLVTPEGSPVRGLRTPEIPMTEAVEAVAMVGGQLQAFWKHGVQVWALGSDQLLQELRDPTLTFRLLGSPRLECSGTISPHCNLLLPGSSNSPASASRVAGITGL

Structure (SMILES) | IC50 [1, 2] | IC50 (HPK1 pSLP76 (Ser376); [3]) | IC50 [1] | IC50 (HPK1 pSLP76 (Ser376); Homo sapiens, Jurkat)
NC(=O)c1cc(-c2ccc(CN3C4CCC3COC4)cc2)nc2c(N[C@H]3CCCNC3)ncnc12 [Example 66, 6-(4-[3-oxa-8-azabicyclo [3.2.1]octan-8-ylmethyl]phenyl)-4-[(3S)-piperidin-3-ylamino]pyrido[3,2-d]pyrimidine-8-carboxamide] | < 100 nM | < 500 nM |  | 
C[C@@H](O)COc1ccc(-c2cc(C(N)=O)c3ncnc(N[C@H]4CCCNC4)c3n2)cc1 [Example 51, 6-(4-((R)-2-hydroxypropoxy)phenyl)-4-(((S)-piperidin-3-yl)amino)pyrido[3,2-d]pyrimidine-8-carboxamide] |  |  | < 100 nM | < 500 nM
CC(C)(O)COc1ccc(-c2cc(C(N)=O)c3ncnc(N[C@@H]4CNC[C@@H](F)C4)c3n2)cc1 [Example 12, 4-(((3S,5S)-5-fluoropiperidin-3-yl)amino)-6-(4-(2-hydroxy-2-methylpropoxy)phenyl)pyrido[3,2-d]pyrimidine-8-carboxamide] | < 100 nM | < 500 nM |  | 
COC(C)(C)COc1ccc(-c2cc(C(N)=O)c3ncnc(N[C@H]4CCCNC4)c3n2)cc1 [Example 61, 6-[4-(2-methoxy-2-methylpropoxy)phenyl]-4-[(3S)-piperidin-3-ylamino]pyrido[3,2-d]pyrimidine-8-carboxamide] | < 100 nM | < 500 nM |  | 
C[C@@H]1CN(Cc2ccc(-c3cc(C(N)=O)c4ncnc(N[C@H]5CCCNC5)c4n3)cc2)CCO1 [Example 69, 6-(4-[[(2R)-2-methylmorpholin-4-yl]methyl]phenyl)-4-[(3S)-piperidin-3-ylamino]pyrido[3,2-d]pyrimidine-8-carboxamide dihydrochloride] | < 100 nM | > 1000 nM |  | 
COCCOc1ccc(-c2cc(C(N)=O)c3ncnc(N[C@H]4CCCNC4)c3n2)cn1 [Example 55, (S)-6-(6-(2-methoxyethoxy)pyridin-3-yl)-4-(piperidin-3-ylamino)pyrido[3,2-d]pyrimidine-8-carboxamide] | < 100 nM | > 1000 nM |  | 
Cc1nn(C)cc1-c1cc(C(N)=O)c2ncnc(N[C@@H]3CNC[C@@H](F)C3)c2n1 [Example 3, 6-(1,3-dimethyl-1H-pyrazol-4-yl)-4-(((3S,5S)-5-fluoropiperidin-3-yl)amino)pyrido[3,2-d]pyrimidine-8-carboxamide] | < 100 nM | < 500 nM |  | 

More lines, main results first:

IC50 [1, 2] | IC50 (HPK1 pSLP76 (Ser376); [3]) | Structure (SMILES) | IC50 [1] | IC50 (HPK1 pSLP76 (Ser376); Homo sapiens, Jurkat)
< 100 nM | > 1000 nM | C[C@@H]1COC[C@H](C)N1Cc1ccc(-c2cc(C(N)=O)c3ncnc(N[C@@H]4CNCCC4(F)F)c3n2)cc1 [Example 29, 4-[[(3R)-4,4-difluoropiperidin-3-yl]amino]-6-(4-[[(3R,5S)-3,5-dimethylmorpholin-4-yl]methyl]phenyl)pyrido[3,2-d]pyrimidine-8-carboxamide] |  | 
< 100 nM | < 500 nM | NC(=O)c1cc(-c2ccc(OCC3(O)CCCC3)cc2)nc2c(N[C@H]3CCCNC3)ncnc12 [Example 41, (S)-6-(4-((1-hydroxycyclopentyl)methoxy)phenyl)-4-(piperidin-3-ylamino)pyrido[3,2-d]pyrimidine-8-carboxamide] |  | 
< 100 nM | < 500 nM | Cn1cc(-c2cc(C(N)=O)c3ncnc(N[C@H]4CCCNC4)c3n2)cc1C#N [Example 83, 6-(5-cyano-1-methyl-1H-pyrrol-3-yl)-4-{[(3S)-piperidin-3-yl]amino}pyrido[3,2-d]pyrimidine-8-carboxamide] |  | 
< 100 nM | < 500 nM | NC(=O)c1cc(-c2ccc(C3(O)CC3)cc2)nc2c(N[C@H]3CCCNC3)ncnc12 [Example 58, 6-[4-(1-hydroxycyclopropyl)phenyl]-4-[(3S)-piperidin-3-ylamino]pyrido[3,2-d]pyrimidine-8-carboxamide] |  | 
